For 23 molecules, Ki results are on record in patent publication US9226916B2, “Pyrrolidine derivatives” (HOFFMANN-LA ROCHE INC., priority 2009, dated 2016).

The target of one assay is T1, recombinant human NK3 receptor (Homo sapiens, UniProt P29371).
T1 construct: expressed in transfected cells; host or cells: HEK293 cells, transient expression; membranes
T1 sequence (P29371 1-465): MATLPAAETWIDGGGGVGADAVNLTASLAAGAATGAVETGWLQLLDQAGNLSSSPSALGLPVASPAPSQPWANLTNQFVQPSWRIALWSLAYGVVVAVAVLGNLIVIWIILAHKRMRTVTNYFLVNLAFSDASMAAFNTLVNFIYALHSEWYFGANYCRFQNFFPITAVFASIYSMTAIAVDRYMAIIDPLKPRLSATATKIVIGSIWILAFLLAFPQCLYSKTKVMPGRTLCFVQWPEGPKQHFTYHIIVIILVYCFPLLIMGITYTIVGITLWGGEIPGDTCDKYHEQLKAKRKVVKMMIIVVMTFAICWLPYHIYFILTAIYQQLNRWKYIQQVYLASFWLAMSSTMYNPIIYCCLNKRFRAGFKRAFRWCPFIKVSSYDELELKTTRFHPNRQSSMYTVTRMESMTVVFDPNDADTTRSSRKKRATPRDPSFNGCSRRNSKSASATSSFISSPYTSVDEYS
The assay can be described thus: [3H]SR142801 competition binding assay.
Settings: not given
For `CN(C(=O)Oc1ccc(F)cc1)[C@@H]1CN(C(=O)C2CCN(c3cnc(C#N)cn3)CC2)C[C@H]1c1ccc(Cl)cc1` [Example 193, {(3S,4R)-4-(4-Chloro-phenyl)-1-[1-(5-cyano-pyrazin-2-yl)-piperidine-4-carbonyl]-pyrrolidin-3-yl}-methyl-carbamic acid 4-fluoro-phenyl ester], the inhibition constant Ki is 1.1 nM. Take `CN(C(=O)Oc1ccc(F)cc1)[C@@H]1CN(C(=O)C2CCN(C(=O)CC#N)CC2)C[C@H]1c1ccc(Cl)cc1` [Example 253, {(3S,4R)-4-(4-Chloro-phenyl)-1-[1-(2-cyano-acetyl)-piperidine-4-carbonyl]-pyrrolidin-3-yl}-methyl-carbamic acid 4-fluoro-phenyl ester]: the Ki was 1.8 nM. The same measure, in the same setting: then `CN(C(=O)Oc1ccc(F)cc1)[C@@H]1CN(C(=O)C2CCN(C3CC3)CC2)C[C@H]1c1ccc(Cl)cc1` [Example 150, [(3S,4R)-4-(4-Chloro-phenyl)-1-(1-cyclopropyl-piperidine-4-carbonyl)-pyrrolidin-3-yl]-methyl-carbamic acid 4-fluoro-phenyl ester], with 15.6 nM. On the same count and under the same terms, for `CN(C(=O)OCC1CCOCC1)[C@H]1CN(C(=O)C2CCN(C(=O)C3(C)CC3)CC2)C[C@@H]1c1ccc(Cl)c(Cl)c1` (racemic) [Example 31, rac-{(3R,4S)-4-(3,4-Dichloro-phenyl)-1-[1-(1-methyl-cyclopropanecarbonyl)-piperidine-4-carbonyl]-pyrrolidin-3-yl}-methyl-carbamic acid tetrahydro-pyran-4-ylmethyl ester] the value was 11.6 nM; for `CN(C(=O)Oc1ccc(F)cc1)[C@@H]1CN(C(=O)CCN2CCOCC2)C[C@H]1c1ccc(Cl)cc1` [Example 114, [(3S,4R)-4-(4-Chloro-phenyl)-1-(3-morpholin-4-yl-propionyl)-pyrrolidin-3-yl]-methyl-carbamic acid 4-fluoro-phenyl ester], 83 nM. Consider `CN(C(=O)O[C@H]1CC[C@H](C)CC1)[C@@H]1CN(C(=O)C2CCN(c3ccc(C#N)cn3)CC2)C[C@H]1c1ccc(Cl)cc1` [Example 221, [(3S,4R)-4-(4-Chloro-phenyl)-1-(5′-cyano-3,4,5,6-tetrahydro-2H-[1,2′]bipyridinyl-4-carbonyl)-pyrrolidin-3-yl]-methyl-carbamic acid 4-methyl-cyclohexyl ester], for which the Ki was determined as 1 nM. Still for that read-out and setting: for `CN(C(=O)Oc1ccc(F)cc1)[C@H]1CN(C(=O)[C@H]2CC[C@@](C)(O)CC2)C[C@@H]1c1ccc(Cl)c(Cl)c1` (racemic) [Example 53, rac-[(3R,4S)-4-(3,4-Dichloro-phenyl)-1-(cis-4-hydroxy-4-methyl-cyclohexanecarbonyl)-pyrrolidin-3-yl]-methyl-carbamic acid 4-fluoro-phenyl ester] the value was 4.7 nM. Same read-out and setting: for `CN(C(=O)OCC1CCC(F)(F)C1)[C@H]1CN(C(=O)C2CCN(C(=O)C3(C)CC3)CC2)C[C@@H]1c1ccc(Cl)c(Cl)c1` (mixture of isomers) [Example 111, rac-{(3R,4S)-4-(3,4-Dichloro-phenyl)-1-[1-(1-methyl-cyclopropanecarbonyl)-piperidine-4-carbonyl]-pyrrolidin-3-yl}-methyl-carbamic acid 3,3-difluoro-cyclopentylmethyl ester] the value was 4.4 nM. Same read-out and setting: for `CN(C(=O)OCC1CCCC1)[C@H]1CN(C(=O)C2CCN(C(=O)C3(C)CC3)CC2)C[C@@H]1c1ccc(Cl)c(Cl)c1` (racemic) [Example 32, rac-{(3R,4S)-4-(3,4-Dichloro-phenyl)-1-[1-(1-methyl-cyclopropanecarbonyl)-piperidine-4-carbonyl]-pyrrolidin-3-yl}-methyl-carbamic acid cyclopentylmethyl ester] the value was 1.4 nM; for `CN(C(=O)Oc1ccc(F)cc1)[C@@H]1CN(C(=O)C2CCN(C3CCS(=O)(=O)C3)CC2)C[C@H]1c1ccc(Cl)cc1` (stereo partly drawn) [Example 115, {(3S,4R)-4-(4-Chloro-phenyl)-1-[1-(1,1-dioxo-tetrahydro-1λ^6-thiophen-3-yl)-piperidine-4-carbonyl]-pyrrolidin-3-yl}-methyl-carbamic acid 4-fluoro-phenyl ester], 1.3 nM; for `Cc1ccc(OC(=O)N(C)[C@H]2CN(C(=O)C3CCN(CC4CC4)CC3)C[C@@H]2c2ccc(Cl)c(Cl)c2)cc1` (racemic) [Example 8, rac-[(3R,4S)-1-(1-Cyclopropylmethyl-piperidine-4-carbonyl)-4-(3,4-dichloro-phenyl)-pyrrolidin-3-yl]-methyl-carbamic acid p-tolyl ester], 4 nM. Turning to `CN(C(=O)Oc1ccc(F)cc1)[C@@H]1CN(C(=O)C2CCS(=O)(=O)CC2)C[C@H]1c1ccc(Cl)cc1` [Example 93, [(3S,4R)-4-(4-Chloro-phenyl)-1-(1,1-dioxo-hexahydro-1λ^6-thiopyran-4-carbonyl)-pyrrolidin-3-yl]-methyl-carbamic acid 4-fluoro-phenyl ester], the Ki stood at 6.6 nM. The same measure, in the same setting: then `CN(C(=O)Oc1ccc(F)cc1)[C@H]1CN(C(=O)C2CCN(C(=O)OC(C)(C)C)CC2)C[C@@H]1c1ccc(Cl)c(Cl)c1` (racemic) [Example 66, rac-4-{(3S,4R)-3-(3,4-Dichloro-phenyl)-4-[(4-fluoro-phenoxycarbonyl)-methyl-amino]-pyrrolidine-1-carbonyl}-piperidine-1-carboxylic acid tert-butyl ester], with 0.8 nM; and `CN(C(=O)O[C@]1(C(F)(F)F)CC[C@@H](C)CC1)[C@@H]1CN(C(=O)C2CCN(c3ccc(C#N)cn3)CC2)C[C@H]1c1ccc(Cl)cc1` [Example 240, [(3S,4R)-4-(4-Chloro-phenyl)-1-(5′-cyano-3,4,5,6-tetrahydro-2H-[1,2′]bipyridinyl-4-carbonyl)-pyrrolidin-3-yl]-methyl-carbamic acid 4-methyl-1-trifluoromethyl-cyclohexyl ester], with 22.8 nM; and `CN(C(=O)Oc1ccc(F)cc1)[C@@H]1CN(C(=O)C2CCN(C(=O)C3CC3(C)C)CC2)C[C@H]1c1ccc(Cl)c(Cl)c1` (stereo partly drawn) [Example 278, {(3S,4R)-4-(3,4-Dichloro-phenyl)-1-[1-(2,2-dimethyl-cyclopropanecarbonyl)-piperidine-4-carbonyl]-pyrrolidin-3-yl}-methyl-carbamic acid 4-fluoro-phenyl ester], with 0.6 nM. For `CN(C(=O)Oc1ccc(F)cc1)[C@@H]1CN(C(=O)C2CCN(C(=O)CC#N)CC2)C[C@H]1c1ccc(F)cc1` [Example 284, [(3S,4R)-1-[1-(2-Cyano-acetyl)-piperidine-4-carbonyl]-4-(4-fluoro-phenyl)-pyrrolidin-3-yl]-methyl-carbamic acid 4-fluoro-phenyl ester], the inhibition constant Ki was determined as 31.1 nM. Still for that read-out and setting: then `CN(C(=O)OCCC(F)(F)F)[C@H]1CN(C(=O)C2CCN(C(=O)C3(C)CC3)CC2)C[C@@H]1c1ccc(Cl)c(Cl)c1` (single isomer, unassigned) [Example 29], with 14.9 nM; and `CN(C(=O)Oc1ccc(F)cc1)[C@H]1CN(C(=O)C2CCN(c3ccc(C#N)cn3)CC2)C[C@@H]1c1ccc(Cl)c(Cl)c1` (racemic) [Example 80, rac-[(3R,4S)-1-(5′-Cyano-3,4,5,6-tetrahydro-2H-[1,2′]bipyridinyl-4-carbonyl)-4-(3,4-dichloro-phenyl)-pyrrolidin-3-yl]-methyl-carbamic acid 4-fluoro-phenyl ester], with 0.3 nM; and `CN(C(=O)OCC(C)(C)C)[C@@H]1CN(C(=O)C2CCN(c3ccc(C#N)cn3)CC2)C[C@H]1c1ccc(Cl)cc1` [Example 205, [(3S,4R)-4-(4-Chloro-phenyl)-1-(5′-cyano-3,4,5,6-tetrahydro-2H-[1,2′]bipyridinyl-4-carbonyl)-pyrrolidin-3-yl]-methyl-carbamic acid 2,2-dimethyl-propyl ester], with 5.7 nM.

Take `CN(C(=O)O[C@H]1CC[C@H](C(F)(F)F)CC1)[C@@H]1CN(C(=O)C2CCOCC2)C[C@H]1c1ccc(Cl)c(Cl)c1` [Example 161, [(3S,4R)-4-(3,4-Dichloro-phenyl)-1-(tetrahydro-pyran-4-carbonyl)-pyrrolidin-3-yl]-methyl-carbamic acid 4-trifluoromethyl-cyclohexyl ester]: the Ki was determined as 7.4 nM.

Still in this assay, the particulars now being: hNK-3 receptor affinity; membranes from HEK293 cells transiently expressing recombinant human NK3 receptor; [3H]SR142801; Cheng-Prussoff; read-out: Data Ki.
As to `CN(C(=O)OC1CCC(C(F)(F)F)CC1)[C@H]1CN(C(=O)C2CCN(C(=O)C3(C)CC3)CC2)C[C@@H]1c1ccc(Cl)c(Cl)c1` (mixture of isomers) [Example 103, rac-{(3R,4S)-4-(3,4-Dichloro-phenyl)-1-[1-(1-methyl-cyclopropanecarbonyl)-piperidine-4-carbonyl]-pyrrolidin-3-yl}-methyl-carbamic acid 4-trifluoromethyl-cyclohexyl ester], the Ki is 1.8 nM. On the same count and under the same terms, then `CN(C(=O)OC1CCCCC1)[C@@H]1CN(C(=O)C2CCN(c3ccc(C#N)cn3)CC2)C[C@H]1c1ccc(Cl)cc1` [Example 143, [(3S,4R)-4-(4-Chloro-phenyl)-1-(5′-cyano-3,4,5,6-tetrahydro-2H-[1,2′]bipyridinyl-4-carbonyl)-pyrrolidin-3-yl]-methyl-carbamic acid cyclohexyl ester], with 3.2 nM; and `CN(C(=O)OCCCC(F)(F)F)[C@H]1CN(C(=O)C2CCN(C(=O)C3(C)CC3)CC2)C[C@@H]1c1ccc(Cl)c(Cl)c1` (racemic) [Example 67, rac-{(3R,4S)-4-(3,4-Dichloro-phenyl)-1-[1-(1-methyl-cyclopropanecarbonyl)-piperidine-4-carbonyl]-pyrrolidin-3-yl}-methyl-carbamic acid 4,4,4-trifluoro-butyl ester], with 0.4 nM.

By Ki is commonly meant the dissociation constant of the complex between target and ligand, obtained from inhibition or displacement.
